Data published in patent publication US20050164370A1 (priority 2003, published 2005).

Tests used:
[1] = system: transformed cells TM182-CRE1-ADHIPT4; conditions: TM182-CRE1-ADHIPT4, DOHLU+Glu agar containing 10 μM trans-zeatin, 30° C. for 30 hours
Method: (§1) After incubation, the growth state of the transformed cells was observed and photographed by a digital camera.

[2] = system: transformed cells TM182-CYC1-ADHIPT5; conditions: TM182-CYC1-ADHIPT5, DOHLU+Glu agar containing 10 μM trans-zeatin, 30° C. for 30 hours
Method: as §1

[3] = system: transformed cells TM182-AHK2-ADHIPT5; conditions: TM182-AHK2-ADHIPT5, DOHLU+Glu agar containing 10 μM trans-zeatin, 30° C. for 30 hours
Method: as §1

[4] = system: transformed cells TM182-CYC1-CYC1IPT4; conditions: TM182-CYC1-CYC1IPT4, DOHLU+Glu agar containing 10 μM trans-zeatin, 30° C. for 30 hours
Method: as §1

[5] = system: transformed cells TM182-CYC1-CYC1IPT5; conditions: TM182-CYC1-CYC1IPT5, DOHLU+Glu agar containing 10 μM trans-zeatin, 30° C. for 30 hours
Method: as §1

[6] = system: transformed cells TM182-AHK2-CYC1IPT5; conditions: TM182-AHK2-CYC1IPT5, DOHLU+Glu agar containing 10 μM trans-zeatin, 30° C. for 30 hours
Method: as §1

[7] = system: transformed cells TM182-AHK2-CYC1IPT4; conditions: TM182-AHK2-CYC1IPT4, DOHLU+Glu agar containing 10 μM trans-zeatin, 30° C. for 30 hours
Method: as §1

[8] = system: transformed cells TM182-AHK2-ADHIPT4; conditions: TM182-AHK2-ADHIPT4, DOHLU+Glu agar containing 10 μM trans-zeatin, 30° C. for 30 hours
Method: as §1

[9] = system: transformed cells TM182-CYC1-ADHIPT4; conditions: TM182-CYC1-ADHIPT4, DOHLU+Glu agar containing 10 μM trans-zeatin, 30° C. for 30 hours
Method: as §1

[10] = system: transformed cells TM182-CRE1-CYC1IPT4; conditions: TM182-CRE1-CYC1IPT4, DOHLU+Glu agar containing 10 μM trans-zeatin, 30° C. for 30 hours
Method: as §1

cytokinin receptor AHK3 = target: T1, cytokinin receptor AHK3 (Arabidopsis thaliana, UniProt Q9C5U1); conditions: TM182-AHK3, DOLU+Glu agar, 10 μM, 30° C. for 30 hours
T1 sequence (Q9C5U1 1-1036): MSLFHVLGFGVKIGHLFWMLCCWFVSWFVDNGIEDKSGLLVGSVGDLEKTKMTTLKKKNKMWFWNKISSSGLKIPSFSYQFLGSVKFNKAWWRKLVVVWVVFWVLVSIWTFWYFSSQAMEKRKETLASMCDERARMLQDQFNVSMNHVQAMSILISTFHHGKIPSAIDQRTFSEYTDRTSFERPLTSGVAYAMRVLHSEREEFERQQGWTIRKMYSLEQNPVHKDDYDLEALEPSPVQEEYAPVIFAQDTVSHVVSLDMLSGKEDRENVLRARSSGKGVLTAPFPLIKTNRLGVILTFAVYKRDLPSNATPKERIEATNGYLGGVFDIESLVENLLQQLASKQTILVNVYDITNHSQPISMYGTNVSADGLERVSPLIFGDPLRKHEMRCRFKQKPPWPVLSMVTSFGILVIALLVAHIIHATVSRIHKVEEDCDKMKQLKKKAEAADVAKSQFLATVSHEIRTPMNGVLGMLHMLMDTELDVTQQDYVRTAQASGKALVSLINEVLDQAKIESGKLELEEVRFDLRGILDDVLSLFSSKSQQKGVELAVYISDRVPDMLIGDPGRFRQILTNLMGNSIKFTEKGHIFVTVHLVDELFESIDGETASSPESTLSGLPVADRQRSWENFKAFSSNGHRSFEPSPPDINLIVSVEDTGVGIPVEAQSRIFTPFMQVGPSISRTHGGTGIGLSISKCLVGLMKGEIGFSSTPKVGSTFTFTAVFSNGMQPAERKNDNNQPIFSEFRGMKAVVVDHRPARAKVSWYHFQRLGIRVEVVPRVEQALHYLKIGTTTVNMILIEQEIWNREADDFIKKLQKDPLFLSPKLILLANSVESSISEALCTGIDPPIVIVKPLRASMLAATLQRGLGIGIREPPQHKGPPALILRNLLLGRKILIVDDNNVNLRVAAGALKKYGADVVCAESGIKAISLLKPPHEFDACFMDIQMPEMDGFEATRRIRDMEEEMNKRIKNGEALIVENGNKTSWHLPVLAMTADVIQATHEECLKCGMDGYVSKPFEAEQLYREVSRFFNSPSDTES
Method: A culture solution 10 μl (about 800 clones of yeast) of the transformed cells TM182-CRE1, TM182-AHK2, TM182-AHK2Δ and TM182-AHK3 produced by the example 12 was spotted on DOLU+Glu agar media containing 10 μM of trans-zeatin and cultured at 30° C. for 30 hours. After incubation, the growth state of the transformed cells was observed and photographed by a digital camera.

C/C(=C\CNc1ncnc2nc[nH]c12)CO [trans-zeatin]
growth state of the transformed cells [1]: observed to grow | growth state of the transformed cells [2]: not observed to grow | growth state of the transformed cells [3]: observed to grow | growth state of the transformed cells [4]: not observed to grow | growth state of the transformed cells [5]: not observed to grow | growth state of the transformed cells [6]: observed to grow | growth state of the transformed cells [7]: observed to grow | growth state of the transformed cells [8]: observed to grow | growth state of the transformed cells [9]: not observed to grow | growth state of the transformed cells [10]: observed to grow | growth state of the transformed cells as compared with media containing no trans-zeatin (cytokinin receptor AHK3): high growth
